Test [1] has as its system 16 HPV-positive and 17 HPV-negative HNSCC and cervical squamous cancer cell lines. The test can be described thus: High-throughput drug screen (HTDS), whole panel, comparison by HPV status. It is filed as cell-based. As to conditions: AOC_LD as a dichotomous variable.
In test [2] the test system is HPV-negative UMSCC22A cells. The test can be described thus: In vivo tumor growth, HPV-negative xenograft. Further details: species or system mice. Conditions: 10 mg/kg oral gavage 5 days per week for 21 days, high Rb protein levels. How it is done: PDX tumors HOSC144 (FIG. 3A, FIG. 3E, FIG. 3F), HOSC19 (FIG. 3B), and HOSC156 (FIG. 3C) were implanted into the flanks of nude mice. After engraftment, mice were randomized and assigned into 1 of 2 treatment groups: vehicle (β-cyclodextrin, n=8) or alisertib (10 mg/kg, n=8). Mice were treated for 3 weeks by daily oral gavage. Tumor size was measured twice a week. FIG. 3A, FIG. 3B, and FIG. 3C show in vivo tumor growth curves for individual mice (left 3 panels). Survival (right panels) was measured using the Kaplan-Meier method. In FIG. 3D, HPV-negative UMSCC22A cells were injected subcutaneously (3×10^6 cells) on the right flanks of the mice. Once the tumor volume reached ≥60 mm^3, mice were randomized into treatment groups. Mice were treated with vehicle or 10 mg/kg alisertib by oral gavage for 5 days per week for 21 days. Tumor size was measured twice a week. […] The Ki67(%) was calculated as the ratio of proliferative cells to total cells in each field, using five random fields. […] The apoptotic (%) was calculated as the ratio of apoptotic cells to total cells in each field, using five random fields in HOSC144 PDX tumors after 8 or 21 days of treatment with either vehicle or alisertib. ** P≤0.01; *** P≤0.001. Bars, […]. […]

Test [3] concerns HPV-positive cell lines (CASKI and SIHA). Briefly: Apoptosis immunoblot after BUB1B or MAD2L1 siRNA. The test is classed as cell-based. As to conditions: 300 nmol/L, 24 hours. How it is done:
FIG. 5A, two HPV-positive cell lines (CASKI and SIHA) were transfected with BUB1B or MAD2L1 siRNA and then treated for 24 hours with 300 nmol/L alisertib before lysis and immunoblotting with the indicated antibodies. FIG. 5B, TRIP13 was transiently overexpressed (Ox) in 2 HPV-positive cell lines that were treated for 24 hours with 300 nmol/L alisertib before lysis and immunoblotting for the indicated proteins. FIG. 5C, HPV-positive cell lines with TRIP13 overexpression were treated with 300 nmol/L alisertib for 32 hours and then stained for annexin V-PE/7AAD staining and analysis with flow cytometry to measure apoptosis. The bar graph represents the ratio of apoptosis (late plus early) among different groups. Values are the means±the standard deviations for 3 independent experiments. ** P≤0.01; *** P≤0.001; unpaired, 2-tailed Student t-test. FIG. 5D, HN31 (left panel) and MDA886LN (right panel) cells expressing RB1 or control shRNA were transfected with a plasmid for TRIP13. After 24 hours, cells were treated with 300 nmol/L alisertib and then lysed for immunoblotting. Cl, cleaved; Fl, full length; GAPDH, glyceraldehyde 3-phosphate dehydrogenase. […]
(In general: A western blot detects proteins with antibodies after separation by electrophoresis.)

With `COc1cc(Nc2ncc3c(n2)-c2ccc(Cl)cc2C(c2c(F)cccc2OC)=NC3)ccc1C(=O)O` [ALISERTIB, alisertib], the “efficacy in HPV-positive vs HPV-negative cell lines” value in test [1] is given as “tended to be more effective in HPV-positive cell lines”. For the same compound, the tumor response result in test [2] is “resistant”. For the same compound, the “apoptosis with reduced levels of Mad2 or BUB1B” value in test [3] is on record as “rescued the cells from alisertib-induced apoptosis”.

Values taken from patent US20260258420A1, “COMPOSITIONS AND METHODS FOR THE TREATMENT OF HUMAN PAPILLOMAVIRUS-DRIVEN CANCERS” (priority 2023, published 2026).
